According to PubChem BioAssay AID977628 (Broad Institute, 2014):
Records with an inconclusive call do not appear.

Tested on: E. coli mixed WT/h24 culture total growth, OD600, 24 h
Assay: growth of wild-type and h24-humanized E. coli strains – h24 mutant RFP vs wild-type GFP, cherry-pick, dose response (AID 977628)

SMILES	AC50 [µM]
NS(=O)(=O)c1cc(C(=O)OCC(=O)Nc2ccccc2[N+](=O)[O-])ccc1Cl	> 100
O=S(=O)(NOCc1ccc(Cl)cc1)c1ccc(Cl)cc1	> 100
COc1ccc(NC(=O)Nc2cccc3c2O[C@H](CN(C)S(=O)(=O)c2ccc(Cl)cc2)[C@@H](C)CN([C@@H](C)CO)C3=O)cc1	> 100
Cc1ccc(NC(=O)C2CCN(S(=O)(=O)c3ccc4c(c3)NC(=O)CO4)CC2)cc1	> 100
O=C(NC1CCCCC1)C(c1cccc2ccccc12)n1c(=O)c(-c2ccco2)nc2ccccc21 (stereo not drawn)	> 100
COC(=O)c1ccc(OCC(=O)c2ccccc2OC)cc1	> 100
Cc1ccnc(NS(=O)(=O)c2ccc(NC(=O)c3ccc4c(c3)OCCO4)cc2)n1	> 100
CCOCCCNC(=O)C(NC(=O)c1ccccc1O)c1ccc(C)cc1 (stereo not drawn)	> 100
O=C(NCc1ccc2c(c1)OCO2)c1sccc1Br	> 100
Cc1ccc(S(=O)(=O)N2CCCCC2C(=O)N2CCN(c3ccccc3F)CC2)cc1 (stereo not drawn)	> 100
O=C(Nc1ccccc1N1CCOCC1)C1CCCCN1S(=O)(=O)c1ccccc1 (stereo not drawn)	> 100
Cc1cc(C(C)(C)C)oc1C(=O)N(CC(=O)NC1CCCC1)c1c(C)cccc1C	> 100
COc1ccc(C(=O)C[n+]2ccc3c(c2)nc(-c2cc(OC)c(OC)cc2OC)n3C)cc1	> 100
O=C(Nc1cccc(S(=O)(=O)c2cccc(NC(=O)C3CC3)c2)c1)C1CC1	46.7
Cc1cc(C)c(OCC(=O)OCC(=O)N2CCc3ccccc3C2)c(C)c1	> 100
Cc1ccc(S(=O)(=O)NC(C)C(=O)NCc2ccc(Cl)cc2)cc1 (stereo not drawn)	> 100
C=CCn1c(SCC(=O)Nc2ccc3c(c2)OCCO3)nnc1-c1ccco1	> 100
CCC(C(=O)Nc1ccsc1C(=O)OC)c1ccccc1 (stereo not drawn)	> 100
COc1cc2c(cc1OC)CN(CC(=O)Nc1ccccc1SC)CC2	> 100
Cc1ccc(OCCCC(=O)NC(C)c2ccccc2)c(C)c1 (stereo not drawn)	> 100
Cc1n[nH]c(C)c1S(=O)(=O)N1CCCC(C(=O)Nc2ccc(Br)cc2)C1 (stereo not drawn)	> 100

SMILES	AC50 [µM]
CN(C)S(=O)(=O)c1ccc(Cl)c(C(=O)OCC(=O)NC(=O)c2cccn2C)c1	> 100
O=C(Nc1ccc(Cl)cn1)c1ccc([N+](=O)[O-])o1	> 100
S=c1nc(-c2cccc(Br)c2)[nH][nH]1	> 100
Cc1cccc(N2CCN(Cc3nc(-c4ccc(F)cc4F)oc3C)CC2)n1	> 100
O=C(Nc1ccc(F)c(Cl)c1)C1CC2CCC1C2 (stereo not drawn)	> 100
O=C(CSCc1c(Cl)cccc1Cl)NCc1ccccn1	> 100
CCOc1ccc(C(C)=O)cc1CN1C(=O)NC2(CCCCCCC2)C1=O	> 100
COc1ccccc1N1CCN(Cc2ccc(OC)c3ccccc23)CC1	> 100
COC(=O)CNC(=O)COC(=O)c1ccc(Cl)nc1	> 100
CCOC(=O)CN1C(=O)C(CC)Oc2ccc(Cl)cc21 (stereo not drawn)	> 100
O=S1(=O)N[C@H](Cc2ccccc2)COc2cc(N3CCSCC3)ccc21	> 100
CN(Cc1nnc(-c2ccc(F)cc2)o1)c1ccccc1	> 100
O=S(=O)(Nc1ccccc1N1CCCCC1)c1cccs1	> 100
COc1ccc(/C=C/c2nc3ccccc3n2Cc2ccccc2OC)cc1	> 100
CCCCc1cc2c(cc1NC(=O)CN1CCCCC1)OCCO2	> 100
CCN(CC)CC(=O)Nc1sc2c(c1C(=O)c1ccccc1OC)CCC2	> 100
O=C1OC[C@@H]2CCCN2C(=O)[C@@H](CC(=O)N(CCO)Cc2ccccc2)C/C=C\C[C@H]1Cc1ccc(F)cc1	> 100
Nc1ccccc1Sc1c[nH]c2ccccc12	> 100
COc1cccc(-c2ccc(NC(=O)C3CCCN(Cc4cnn(C(C)C)c4)C3)cc2)c1 (stereo not drawn)	> 100
O=C1OCCC1Sc1nc2ccccc2c(=O)n1Cc1ccccc1 (stereo not drawn)	> 100
COc1ccc(CC(=O)Oc2ccc(C)cc2C)cc1	> 100

SMILES	AC50 [µM]
COCc1c(C#N)c(NCCc2ccc(F)cc2)nc(C)c1[N+](=O)[O-]	> 100
CC(=O)c1ccc(Sc2ccccc2N)c([N+](=O)[O-])c1	> 100
CC1CCCC(NC(=O)COC(=O)Cc2c[nH]c3ccccc23)C1C (stereo not drawn)	> 100
CS(=O)(=O)Nc1ccccc1C(=O)NCCSc1ccccc1	> 100
CC(=O)c1ccc(OCC(=O)Nc2ccc3c(c2)CCC3)cc1	> 100
Cc1cccc(C)c1NC(=O)C1(C)CSCC(=O)N1CCOc1ccccc1 (stereo not drawn)	> 100
Cc1ccc(C2NC(c3ccc(C)cc3)C(C)C(=O)C2C)cc1 (stereo not drawn)	> 100
COc1ccc(CSc2nc3ccccc3c(=O)n2CCCN2CCOCC2)cc1F	> 100
CCCNc1ccc(C(=O)OCC)cc1[N+](=O)[O-]	> 100
CN(CC(=O)Nc1ccc(F)cc1)C(=O)COc1ccc([N+](=O)[O-])cc1Cl	> 100
Cc1ccc(NC(=O)c2ccccc2F)c(NC(=O)c2ccccc2F)c1	> 100
O=C(CC1SC(=O)N(Cc2ccccc2Cl)C1=O)Nc1nccs1 (stereo not drawn)	> 100
CN(CCOc1ccccc1)S(=O)(=O)c1ccccc1C#N	> 100
CC(C)(C)CC(=O)Nc1ccccc1N1CCN(c2ccccc2)CC1	> 100
Cc1nn2c(NCc3ccccn3)cc(C(C)C)nc2c1-c1ccccc1	> 100
O=C(Nc1nc2ccccc2n1CCN1CCOCC1)c1ccccc1	> 100
O=C(COC(=O)CCC(=O)c1ccc(F)cc1)Nc1cccc(S(=O)(=O)N2CCCC2)c1	> 100
CCOC(=O)Cc1nnc(NC(=O)CSc2nc3ccccc3[nH]2)s1	> 100
CNC(=O)c1ccsc1NC(=O)c1ccc(S(=O)(=O)N2CCc3ccccc32)cc1	> 100
Nc1ccc2nc(-c3ccc(Cl)cc3)[nH]c2c1	> 100
CC1CCC2(CC1)SCC(=O)N2c1ccc(F)cc1 (stereo not drawn)	> 100

SMILES	AC50 [µM]
COc1ccc(C(CC(=O)c2ccc(O)cc2)S(=O)(=O)c2ccc(C)cc2)cc1 (stereo not drawn)	> 100
O=C(Cc1ccc(Br)cc1)Nc1cccc(-c2cn3c(n2)SCC3)c1	> 100
COc1ccc(C(=O)NCCC2=CCCCC2)cc1[N+](=O)[O-]	> 100
COc1ccccc1C1CCN(C(=O)c2cccs2)CC1	> 100
OCCN(Cc1ccccc1)Cc1ccc(F)c(F)c1	> 100
CCN(C(=O)COC(=O)CCc1ccccc1)c1ccccc1	> 100
c1ccc(Cc2nc3ccccc3s2)cc1	> 100
Cc1cc(C)c(OCCN(C)Cc2ccccc2)c(Br)c1	> 100
CC(NC(=O)C12CC3CC(C)(CC(C)(C3)C1)C2)c1ccncc1 (stereo not drawn)	> 100
COc1ccc(OC)c(S(=O)(=O)Nc2cccc3ccc(O)cc23)c1	> 100
CCOC(=O)c1c(C)[nH]c(C)c1S(=O)(=O)NCCN1CCN(c2ccccc2F)CC1	> 100
COCC#Cc1ccc2c(c1)O[C@H](CN(C)C(=O)c1ccccc1)[C@@H](C)CN([C@H](C)CO)S2(=O)=O	> 100
CN(C)CCNc1ncnc2c1sc1nc(N3CCCC3)c3c(c12)CC(C)(C)OC3	> 100
CN1OC[C@@H]2CN(C(=O)c3ccco3)[C@H](c3ccc(-c4ccc(C#N)cc4)cc3)C[C@@H]21	> 100
Cc1ccccc1SCC(=O)OCC(=O)Nc1sccc1C(N)=O	> 100
COc1cccc(C(=O)c2c[nH]c(C(=O)NCc3cccnc3)c2)c1	> 100
O=C1c2ccccc2CSc2c(O)cccc21	> 100
Brc1ccccc1Cn1c(-c2cncs2)nc2ccccc21	> 100
COc1cc2ccccc2cc1C(=O)NCC(c1cccs1)N(C)C (stereo not drawn)	> 100
CCOC(=O)c1cc(-c2ccc(OC)cc2)n[nH]1	> 100
